Some results are limits rather than exact numbers.

Broadly, the IC50 is the midpoint of a concentration-inhibition curve.

The target in this assay is T1, Polθ polymerase domain (amino acids 1792-2590) (Homo sapiens, UniProt O75417).
T1 construct: 10×Histidine-SUMO (N, cleaved yes); made in house; host or cells: E. coli
T1 sequence (O75417 1792-2590): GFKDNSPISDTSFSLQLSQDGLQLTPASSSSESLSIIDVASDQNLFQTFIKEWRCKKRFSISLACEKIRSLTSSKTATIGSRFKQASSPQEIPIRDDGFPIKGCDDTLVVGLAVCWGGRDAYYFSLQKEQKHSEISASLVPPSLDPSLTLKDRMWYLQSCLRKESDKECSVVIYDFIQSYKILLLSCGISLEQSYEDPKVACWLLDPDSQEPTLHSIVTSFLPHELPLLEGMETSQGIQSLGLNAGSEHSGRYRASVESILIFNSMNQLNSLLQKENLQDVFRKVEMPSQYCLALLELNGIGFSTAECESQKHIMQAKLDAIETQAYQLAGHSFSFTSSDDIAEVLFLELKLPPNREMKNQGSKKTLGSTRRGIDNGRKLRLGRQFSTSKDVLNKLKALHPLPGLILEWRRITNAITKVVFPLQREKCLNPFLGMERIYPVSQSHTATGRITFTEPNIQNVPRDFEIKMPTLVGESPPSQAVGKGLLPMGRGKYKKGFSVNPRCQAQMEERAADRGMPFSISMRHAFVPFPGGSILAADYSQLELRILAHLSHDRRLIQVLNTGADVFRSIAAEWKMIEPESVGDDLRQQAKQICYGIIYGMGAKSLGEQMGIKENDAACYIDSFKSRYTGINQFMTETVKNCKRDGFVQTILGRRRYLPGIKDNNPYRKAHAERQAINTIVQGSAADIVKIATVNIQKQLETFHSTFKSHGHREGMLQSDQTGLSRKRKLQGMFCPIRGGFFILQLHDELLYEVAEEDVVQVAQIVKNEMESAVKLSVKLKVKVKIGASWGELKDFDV
Description: Picogreen assay of Polθ polymerase activity. In kind it is biochemical. Conditions: 12-point concentration response, 90 minutes incubation at room temperature, 8 nM Polθ in 2×polymerase mixture, read-out: PolQ IC50. Summed up:
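E. coli-expressed polymerase domain with His-SUMO tag removed; 2× enzyme mix (8 nM) combined with 2× substrate mix (100 nM annealed primer/template DNA, 40 uM dNTPs). Buffer 25 mM Tris-HCl pH 7.5, 12.5 mM NaCl, 0.5 mM MgCl2, 1 mM DTT. Reaction 90 min at room temperature, then EDTA/Picogreen stain read at 485/520 nm; 12-point IC50.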
As for `Cc1ccc(F)c(N(CC#Cc2cnc(NC(C)C)cn2)C(=O)[C@@H]2CCS(=O)(=O)N2c2cc(C(F)(F)F)cc(C)n2)c1` [compound 37], the IC50 fell in the range of 0.001 to 0.05 µM.
Regarding `Cc1cc(C(F)(F)F)cc(N2[C@H](C(=O)N(CC#Cc3ccc(C(N)=O)nc3)Cc3ccc(F)c(C)c3)CCS2(=O)=O)n1` [compound 113], the IC50 is > 0.101 µM.
For the compound `Cc1cc(C(F)(F)F)cc(N2[C@H](C(=O)N(CC#Cc3ncc(C(N)=O)cn3)c3ccc(F)c(C)c3)CCS2(=O)=O)n1` [compound 81], the IC50 is > 0.101 µM.
As for `Cc1cc(C(F)(F)F)cc(N2[C@@H](C(=O)N(CC#Cc3ccc(C(N)=O)nc3)Cc3ccc(F)c(C)c3)CCS2(=O)=O)n1` [compound 114], the figure is > 0.101 µM.
Turning to `CCN1CCN(c2cnc(C#CCN(C(=O)[C@@H]3CCS(=O)(=O)N3c3cc(C(F)(F)F)cc(C)n3)c3cc(C)ccc3F)cn2)CC1` [compound 51], the IC50 was 0.001 to 0.05 µM.
As for `Cc1cc(C(F)(F)F)cc(N2[C@H](C(=O)N(CC#Cc3cncc(C(=O)N4CC5CCC(C4)O5)n3)c3ccc(F)c(C)c3)CCS2(=O)=O)n1` [compound 71], the half-maximal inhibitory concentration (IC50) lay within 0.001 to 0.05 µM.
As for `Cc1cc(C(F)(F)F)cc(N2C(=O)CC[C@H]2C(=O)N(CC#Cc2ccc(C(N)=O)nc2)c2ccc(F)c(C)c2)n1` [compound 12], the figure is > 0.101 µM.
Under `CNC(=O)c1cnc(C#CCN(C(=O)[C@@H]2CCS(=O)(=O)N2c2cc(C(F)(F)F)cc(C)n2)c2ccc(F)c(C)c2)cn1` [compound 67] stands 0.001 to 0.05 µM; under `Cc1cc(C(F)(F)F)cc(N2C(=O)CC[C@H]2C(=O)N(CC#Cc2cncn2C)c2ccc(F)c(C)c2)n1` [compound 9], 0.001 to 0.05 µM.
Under `Cc1cc(C(F)(F)F)cc(N2[C@H](C(=O)N(CC#Cc3nc(C)c(C(N)=O)nc3C)c3ccc(F)c(C)c3)CCS2(=O)=O)n1` [compound 119] stands 0.001 to 0.05 µM.
As to `Cc1cc(C(F)(F)F)cc(N2[C@H](C(=O)N(CC#Cc3ncc(N4CCOCC4)nc3N)c3ccc(F)c(C)c3)CCS2(=O)=O)n1` [compound 43], the IC50 is 0.001 to 0.05 µM.
For `Cc1cc(C(F)(F)F)cc(N2[C@H](C(=O)N(CC#Cc3nccc(N4CCOCC4)n3)c3ccc(F)c(C)c3)CCS2(=O)=O)n1` [compound 80], the IC50 was in the range of 0.001 to 0.05 µM.
Under `Cc1cc(N(CC#Cc2ccc(C(N)=O)nc2)C(=O)[C@@H]2CCS(=O)(=O)N2c2cc(C(F)(F)F)cc(C(F)(F)F)n2)ccc1F` [compound 126] stands 0.001 to 0.05 µM; under `Cc1cc(C(F)(F)F)cc(N2[C@H](C(=O)N(CC#Cc3cnc(N4CC5(COC5)C4)cn3)c3ccc(F)c(C)c3)CCS2(=O)=O)n1` [compound 38], 0.001 to 0.05 µM; under `Cc1cc(C(F)(F)F)cc(N2[C@H](C(=O)N(CC#Cc3ccc(N4CCOCC4)nn3)c3ccc(F)c(C)c3)CCS2(=O)=O)n1` [compound 23], 0.001 to 0.05 µM.
As for `Cc1cc(C(F)(F)F)cc(N2[C@H](C(=O)N(CC#Cc3ccc(OC(F)F)nn3)c3ccc(F)c(C)c3)CCS2(=O)=O)n1` [compound 28], the figure is 0.001 to 0.05 µM.
In the case of `Cc1cc(C(F)(F)F)cc(N2[C@H](C(=O)N(CC#Cc3cccc(N4CCOCC4)n3)c3ccc(F)c(C)c3)CCS2(=O)=O)n1` [compound 86], the concentration for half-maximal inhibition (IC50) is 0.001 to 0.05 µM.
As for `Cc1cc(C(F)(F)F)cc(N2C(=O)CC[C@H]2C(=O)N(CC#CCN2CCN(c3ncccn3)CC2)c2ccc(F)c(C)c2F)n1` [compound 16], the figure is 0.001 to 0.05 µM.
As for `Cc1cc(C(F)(F)F)cc(N2[C@H](C(=O)N(CC#Cc3ncnc(N4CCOCC4)n3)c3ccc(F)c(C)c3)CCS2(=O)=O)n1` [compound 103], the figure is > 0.101 µM; as for `Cc1cc(C(F)(F)F)cc(N2[C@H](C(=O)N(CC#Cc3cnc(N4CCOCC4)c(C)n3)c3ccc(F)c(C)c3)CCS2(=O)=O)n1` [compound 45], 0.001 to 0.05 µM.
As for `Cc1cc(C(F)(F)F)cc(N2[C@H](C(=O)N(CC#Cc3ccc(F)c(C(C)C)n3)c3ccc(F)c(C)c3)CCS2(=O)=O)n1` [compound 94], the figure is 0.051 to 0.1 µM; as for `Cc1ccc(F)c(N(CC#Cc2cnc(N3CCOCC3)cn2)C(=O)[C@@H]2CCS(=O)(=O)N2c2cc(C(F)(F)F)cc(C)n2)c1` [compound 40], 0.001 to 0.05 µM; as for `CCN(CC)c1ccc(C#CCN(C(=O)[C@@H]2CCS(=O)(=O)N2c2cc(C(F)(F)F)cc(C)n2)c2ccc(F)c(C)c2)nn1` [compound 25], 0.001 to 0.05 µM.
With `Cc1cc(C(F)(F)F)cc(N2C(=O)CC[C@H]2C(=O)N(CC#Cc2cnc(N)cn2)c2ccc(F)c(C)c2)n1` [compound 6], the half-inhibitory concentration (IC50) was in the range of 0.001 to 0.05 µM.
Under `Cc1cc(C(F)(F)F)cc(N2[C@H](C(=O)N(CC#Cc3cnc(C(N)=O)cn3)c3ccc(F)c(C)c3)CCS2(=O)=O)n1` [compound 61] stands > 0.101 µM; under `Cc1cc(C(F)(F)F)cc(N2C(=O)CC[C@H]2C(=O)N(CC#CCN2CCOCC2)c2ccc(F)c(C)c2F)n1` [compound 14], 0.001 to 0.05 µM.
Consider `Cc1cccc(N(CC#Cc2ccc(N)nn2)C(=O)[C@@H]2CN(C)S(=O)(=O)N2c2cc(C(F)(F)F)cc(C)n2)c1` [compound 107], for which the IC50 lay within 0.001 to 0.05 µM.
As for `Cc1cccc(N(CC#Cc2cnc(N)cn2)C(=O)[C@@H]2CN(C)S(=O)(=O)N2c2cc(C(F)(F)F)cc(C)n2)c1` [compound 108], the concentration for half-maximal inhibition (IC50) fell in the range of 0.051 to 0.1 µM.
As for `Cc1cc(C(F)(F)F)cc(N2[C@H](C(=O)N(CC#Cc3cnc(C#N)cn3)c3ccc(F)c(C)c3)CCS2(=O)=O)n1` [compound 59], the IC50 was > 0.101 µM.
As for `Cc1ccc(F)c(N(CC#Cc2cnc(N)cn2)C(=O)[C@@H]2CCS(=O)(=O)N2c2cc(C(F)(F)F)cc(C)n2)c1` [compound 33], the figure is 0.001 to 0.05 µM; as for `Cc1cc(C(F)(F)F)cc(N2[C@H](C(=O)N(CC#Cc3cnc(N)cn3)c3ccc(F)c(C)c3)CCS2(=O)=O)n1` [compound 30], 0.001 to 0.05 µM; as for `Cc1cc(C(F)(F)F)cc(N2[C@H](C(=O)N(CC#Cc3nccnc3C(N)=O)c3ccc(F)c(C)c3)CCS2(=O)=O)n1` [compound 64], 0.001 to 0.05 µM.
Under `Cc1cc(C(F)(F)F)cc(N2[C@H](C(=O)N(CC#Cc3cccc(=O)[nH]3)c3ccc(F)c(C)c3)CCS2(=O)=O)n1` [compound 87] stands 0.051 to 0.1 µM.
Under `Cc1cc(C(F)(F)F)cc(N2[C@H](C(=O)N(CC#Cc3ccc(-c4ncon4)nc3)c3ccc(F)c(C)c3)CCS2(=O)=O)n1` [compound 116] stands 0.001 to 0.05 µM; under `C=CC(=O)Nc1cccc(C#CCN(C(=O)[C@@H]2CCS(=O)(=O)N2c2cc(C(F)(F)F)cc(C)n2)c2ccc(F)c(C)c2)n1` [compound 137, (S)-N-(3-(6-acrylamidopyridin-2-yl)prop-2-yn-1-yl)-N-(4-fluoro-3-methylphenyl)-2-(6-methyl-4-(trifluoromethyl)pyridin-2-yl)isothiazolidine-3-carboxamide 1,1-dioxide], 0.001 to 0.05 µM.
As for `Cc1cc(C(F)(F)F)cc(N2[C@H](C(=O)N(CC#Cc3cnc(-n4ccnn4)cn3)c3ccc(F)c(C)c3)CCS2(=O)=O)n1` [compound 57], the half-inhibitory concentration (IC50) is 0.001 to 0.05 µM.
Under `C=CC(=O)Nc1ccnc(C#CCN(C(=O)[C@@H]2CCS(=O)(=O)N2c2cc(C(F)(F)F)cc(C)n2)c2ccc(F)c(C)c2)c1` [compound 138, (S)-N-(3-(4-acrylamidopyridin-2-yl)prop-2-yn-1-yl)-N-(4-fluoro-3-methylphenyl)-2-(6-methyl-4-(trifluoromethyl)pyridin-2-yl)isothiazolidine-3-carboxamide 1,1-dioxide] stands 0.001 to 0.05 µM.

The record behind these values is patent publication US20260297083A1, “SUBSTITUTED ACETYLENE COMPOUND DERIVATIVES AND THEIR PHARMACEUTICAL USE” (AVELOS THERAPEUTICS INC., priority 2023, published 2026).
